# From patent US6472348B1, “Pyridone derivatives and herbicides” (Kumiai Chemical Industry Co., Ltd., priority 1996, dated 2002)
# Tested on: pale smartweed (Po)
# Assay: Test Example 9: crop plant selectivity by upland field foliage treatment (wheat), herbicidal effects
# Assay type: in vivo
# Design: scale not given here
# Settings: dose 1.6 g ai/10a, 14th day after treatment
# How it was run: (§1)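 Read-out: weed control and wheat injury, rated by a defined scoring standard 14 days after foliar application.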
row,Structure (SMILES),Herbicidal effects Po
1,C=C(Cl)COc1cc(-c2ccc(C(F)(F)F)n(C)c2=O)c(F)cc1Cl [Compound 1-203],5

# Tested on: common lambsquarters (Ch)
# Assay: as above
# Assay type: in vivo
# Design: scale not given here
# Settings: dose 1.6 g ai/10a, 14th day after treatment
# How it was run: as §1
row,Structure (SMILES),Herbicidal effects Ch
1,C=C(Cl)COc1cc(-c2ccc(C(F)(F)F)n(C)c2=O)c(F)cc1Cl [Compound 1-203],5

# Tested on: China jute (Ab)
# Assay: as above
# Assay type: in vivo
# Design: scale not given here
# Settings: dose 1.6 g ai/10a, 14th day after treatment
# How it was run: as §1
row,Structure (SMILES),Herbicidal effects Ab
1,C=C(Cl)COc1cc(-c2ccc(C(F)(F)F)n(C)c2=O)c(F)cc1Cl [Compound 1-203],5

# Tested on: slender amaranth (Am)
# Assay: as above
# Assay type: in vivo
# Design: scale not given here
# Settings: dose 1.6 g ai/10a, 14th day after treatment
# How it was run: as §1
row,Structure (SMILES),Herbicidal effects Am
1,C=C(Cl)COc1cc(-c2ccc(C(F)(F)F)n(C)c2=O)c(F)cc1Cl [Compound 1-203],5

# Tested on: barnyardgrass (Ec)
# Assay: Test Example 1: herbicidal effects by paddy field soil treatment;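 further: grade of growth control; 5 = at least 90%; 4 = 70 to 90%; 3 = 50 to 70%; 2 = 30 to 50%; 1 = 10 to 30%; 0 = under 10%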
# Assay type: in vivo
# Settings: 100 g of the active ingredient per 10 ares, 21st day after the application, index 0-5 of Table 47
# How it was run: (§2)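 Flooded paddy-soil pots (3 cm water) sown after puddling/leveling; treatment 100 g a.i./10 ares; greenhouse culture; herbicidal effect rated visually on a scoring scale at 21 d post-application.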
row,Structure (SMILES),Herbicidal effects Ec
1,C=C(Cl)COc1cc(-c2ccc(C(F)(F)F)n(C)c2=O)c(F)cc1Cl [Compound 1-203],5

# Tested on: bulrush (Sc)
# Assay: as above
# Assay type: in vivo
# Settings: 100 g of the active ingredient per 10 ares, 21st day after the application, index 0-5 of Table 47
# How it was run: as §2
row,Structure (SMILES),Herbicidal effects Sc
1,C=C(Cl)COc1cc(-c2ccc(C(F)(F)F)n(C)c2=O)c(F)cc1Cl [Compound 1-203],5

# Tested on: monochoria (Mo)
# Assay: as above
# Assay type: in vivo
# Settings: 100 g of the active ingredient per 10 ares, 21st day after the application, index 0-5 of Table 47
# How it was run: as §2
row,Structure (SMILES),Herbicidal effects Mo
1,C=C(Cl)COc1cc(-c2ccc(C(F)(F)F)n(C)c2=O)c(F)cc1Cl [Compound 1-203],5

# Tested on: barnyardgrass (Ec)
# Assay: Test Example 3: herbicidal effects by upland field foliage treatment
# Assay type: in vivo
# Design: scale not given here
# Settings: 100 g active ingredient per 10 ares, evaluated 14th day after treatment
# How it was run: (§3)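 Scoring used a standard effect scale on the 14th day post-treatment, with plants held in a greenhouse throughout. Foliar application was made to weeds raised from seed in sand-filled pots for 2 weeks.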
row,Structure (SMILES),Herbicidal effects Ec
1,C=C(Cl)COc1cc(-c2ccc(C(F)(F)F)n(C)c2=O)c(F)cc1Cl [Compound 1-203],5

# Tested on: Diaitaria ciliaris (Di)
# Assay: as above
# Assay type: in vivo
# Design: scale not given here
# Settings: 100 g active ingredient per 10 ares, evaluated 14th day after treatment
# How it was run: as §3
row,Structure (SMILES),Herbicidal effects Di
1,C=C(Cl)COc1cc(-c2ccc(C(F)(F)F)n(C)c2=O)c(F)cc1Cl [Compound 1-203],5

# Tested on: pale smartweed (Po)
# Assay: as above
# Assay type: in vivo
# Design: scale not given here
# Settings: 100 g active ingredient per 10 ares, evaluated 14th day after treatment
# How it was run: as §3
row,Structure (SMILES),Herbicidal effects Po
1,C=C(Cl)COc1cc(-c2ccc(C(F)(F)F)n(C)c2=O)c(F)cc1Cl [Compound 1-203],5

# Tested on: common lambsquarters (Ch)
# Assay: as above
# Assay type: in vivo
# Design: scale not given here
# Settings: 100 g active ingredient per 10 ares, evaluated 14th day after treatment
# How it was run: as §3
row,Structure (SMILES),Herbicidal effects Ch
1,C=C(Cl)COc1cc(-c2ccc(C(F)(F)F)n(C)c2=O)c(F)cc1Cl [Compound 1-203],5

# Tested on: rice flatsedge (Ci)
# Assay: as above
# Assay type: in vivo
# Design: scale not given here
# Settings: 100 g active ingredient per 10 ares, evaluated 14th day after treatment
# How it was run: as §3
row,Structure (SMILES),Herbicidal effects Ci
1,C=C(Cl)COc1cc(-c2ccc(C(F)(F)F)n(C)c2=O)c(F)cc1Cl [Compound 1-203],5

# Tested on: slender amaranth (Am)
# Assay: as above
# Assay type: in vivo
# Design: scale not given here
# Settings: 100 g active ingredient per 10 ares, evaluated 14th day after treatment
# How it was run: as §3
row,Structure (SMILES),Herbicidal effects Am
1,C=C(Cl)COc1cc(-c2ccc(C(F)(F)F)n(C)c2=O)c(F)cc1Cl [Compound 1-203],5

# Tested on: barnyardgrass (Ec)
# Assay: Test Example 2: herbicidal effects by upland field soil treatment;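 further: grade of growth control; 5 = at least 90%; 4 = 70 to 90%; 3 = 50 to 70%; 2 = 30 to 50%; 1 = 10 to 30%; 0 = under 10%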
# Assay type: in vivo
# Settings: 100 g of the active ingredient per 10 ares, evaluated on the 21st day after application
# Text: (§4) (Test on Herbicidal Effects by Upland Field Soil Treatment)
row,Structure (SMILES),Herbicidal effects Ec
1,C=C(Cl)COc1cc(-c2ccc(C(F)(F)F)n(C)c2=O)c(F)cc1Cl [Compound 1-203],5

# Tested on: pale smartweed (Po)
# Assay: as above
# Assay type: in vivo
# Settings: 100 g of the active ingredient per 10 ares, evaluated on the 21st day after application
# Text: as §4
row,Structure (SMILES),Herbicidal effects Po
1,C=C(Cl)COc1cc(-c2ccc(C(F)(F)F)n(C)c2=O)c(F)cc1Cl [Compound 1-203],5

# Tested on: Digitaria ciliaris (Di)
# Assay: as above
# Assay type: in vivo
# Settings: 100 g of the active ingredient per 10 ares, evaluated on the 21st day after application
# Text: as §4
row,Structure (SMILES),Herbicidal effects Di
1,C=C(Cl)COc1cc(-c2ccc(C(F)(F)F)n(C)c2=O)c(F)cc1Cl [Compound 1-203],5

# Tested on: common lambsquarters (Ch)
# Assay: as above
# Assay type: in vivo
# Settings: 100 g of the active ingredient per 10 ares, evaluated on the 21st day after application
# Text: as §4
row,Structure (SMILES),Herbicidal effects Ch
1,C=C(Cl)COc1cc(-c2ccc(C(F)(F)F)n(C)c2=O)c(F)cc1Cl [Compound 1-203],5

# Tested on: rice flatsedge (Ci)
# Assay: as above
# Assay type: in vivo
# Settings: 100 g of the active ingredient per 10 ares, evaluated on the 21st day after application
# Text: as §4
row,Structure (SMILES),Herbicidal effects Ci
1,C=C(Cl)COc1cc(-c2ccc(C(F)(F)F)n(C)c2=O)c(F)cc1Cl [Compound 1-203],5

# Tested on: slender amaranth (Am)
# Assay: as above
# Assay type: in vivo
# Settings: 100 g of the active ingredient per 10 ares, evaluated on the 21st day after application
# Text: as §4
row,Structure (SMILES),Herbicidal effects Am
1,C=C(Cl)COc1cc(-c2ccc(C(F)(F)F)n(C)c2=O)c(F)cc1Cl [Compound 1-203],5

# Tested on: corn (Ze)
# Assay: Test Example 11: crop plant selectivity by upland field foliage treatment (corn), phytotoxicity
# Settings: upland field foliage treatment, dose 1.6 g ai/10a, 14th day after treatment
# Experimental: (§5) (Test on Crop Plant Selectivity by Upland Field Foliage Treatment)
# (§6) In a plastic pot (surface area: 600 cm^2) filled with sand, corn (Ze), pale smartweed (Po), slender amaranth (Am), common lambsquarters (Ch) and China jute (Ab) were sown and cultured in a green house for 2 weeks. […] The plants were then cultured in a green house, and the evaluation of the herbicidal effects and phytotoxicity was conducted on the 14th day after the treatment in accordance with the standards as identified in Table 47.
row,Structure (SMILES),Phytotoxicity Ze
1,C=C(Cl)COc1cc(-c2ccc(C(F)(F)F)n(C)c2=O)c(F)cc1Cl [Compound 1-203],2

# Tested on: wheat (Tr)
# Assay: Test Example 9: crop plant selectivity by upland field foliage treatment (wheat), phytotoxicity;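 further: grade of crop injury; 5 = at least 90%; 4 = 70 to 90%; 3 = 50 to 70%; 2 = 30 to 50%; 1 = 10 to 30%; 0 = under 10%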
# Settings: dose 1.6 g ai/10a, 14th day after treatment
# How it was run: as §1
row,Structure (SMILES),Phytotoxicity Tr
1,C=C(Cl)COc1cc(-c2ccc(C(F)(F)F)n(C)c2=O)c(F)cc1Cl [Compound 1-203],2

# Tested on: pale smartweed (Po)
# Assay: Test Example 11: crop plant selectivity by upland field foliage treatment (corn), herbicidal effects
# Assay type: in vivo
# Design: scale not given here
# Settings: upland field foliage treatment (corn test), dose 1.6 g ai/10a, 14th day after treatment
# Experimental: as §5, §6
row,Structure (SMILES),Herbicidal effects Po
1,C=C(Cl)COc1cc(-c2ccc(C(F)(F)F)n(C)c2=O)c(F)cc1Cl [Compound 1-203],5

# Tested on: common lambsquarters (Ch)
# Assay: as above
# Assay type: in vivo
# Design: scale not given here
# Settings: upland field foliage treatment (corn test), dose 1.6 g ai/10a, 14th day after treatment
# Experimental: as §5, §6
row,Structure (SMILES),Herbicidal effects Ch
1,C=C(Cl)COc1cc(-c2ccc(C(F)(F)F)n(C)c2=O)c(F)cc1Cl [Compound 1-203],5

# Tested on: China jute (Ab)
# Assay: as above
# Assay type: in vivo
# Design: scale not given here
# Settings: upland field foliage treatment (corn test), dose 1.6 g ai/10a, 14th day after treatment
# Experimental: as §5, §6
row,Structure (SMILES),Herbicidal effects Ab
1,C=C(Cl)COc1cc(-c2ccc(C(F)(F)F)n(C)c2=O)c(F)cc1Cl [Compound 1-203],5

# Tested on: slender amaranth (Am)
# Assay: as above
# Assay type: in vivo
# Design: scale not given here
# Settings: upland field foliage treatment (corn test), dose 1.6 g ai/10a, 14th day after treatment
# Experimental: as §5, §6
row,Structure (SMILES),Herbicidal effects Am
1,C=C(Cl)COc1cc(-c2ccc(C(F)(F)F)n(C)c2=O)c(F)cc1Cl [Compound 1-203],5
